Measurements published in publication PMC4645160, “Targeting kinases with anilinopyrimidines: discovery of N-phenyl-N’-[4-(pyrimidin-4-ylamino)phenyl]urea derivatives as selective inhibitors of class III receptor tyrosine kinase subfamily” (Scientific Reports, 2015).

Assays:
panel of 48 kinases = assay: KinomeScan primary screening (POC) at 10 μM; type: binding, human; conditions: POC values
Description: Synthesized compounds were screened against a panel of 48 kinases selected within the ScanEDGE subset of DiscoverX (http://www.discoverx.com/services/drug-discovery-development-services/kinase-profiling/kinomescan/scanedge). The ScanEDGE includes 97 kinases and is an economical approach to assess compounds selectivity throughout the human kinome. All the wt-TKs along with some relevant mutants of Abl1 (T315I) and of EGFR (L858R and L858R/T790M) were chosen. The remaining 18 targets (3 Tyrosine Kinases-Like, TKLs; 15 Serine-Threonine Kinases, STKs) were selected among the remaining kinases in the ScanEDGE subset on the basis of their well established role in cancer (see Fig. S2 for a graphical representation of the selected kinases with reference to the kinome tree. Some references highlighting the role of each kinase in cancer are also reported in Table S3).
The compounds were evaluated using the KinomeScan™ platform (http://www.discoverx.com/services/drug-discovery-development-services/kinase-profiling/kinomescan), that measures the ability of the test compound to disrupt the complex between a high affinity ATP-mimic probe immobilized on a solid support and the kinase of interest. The KinomeScan is a very helpful technology for the fast and reliable screening of a number of compounds against a wide and customizable panel of kinases. Besides, it is not based on the use of hazardous radioactive ^32P-ATP and has a very low rate of false positive (<1%)[44]. The screening platform outputs a “Percent of Control” (POC) value, statistically correlated to the dissociation constant (Kd) value (http://www.discoverx.com/tools-resources/leadhunter-study-reports-data-analysis), for each pair of kinase/ligand. The POC is calculated as reported in equation (1):
Where: test compound signal = amount of kinase still binding the probe after treatment with test compound; negative control signal = amount of kinase still binding the probe after treatment with DMSO (100% control); positive control signal = amount of kinase still binding the probe after treatment with control compound (0% control).
The compounds were tested at high concentration (10 μM), in order to highlight not only the main target but also the off-targets. The results of the preliminary screening are reported as heat map (Fig. 4; see also Table S4 for all the measured values), in which the compounds are grouped on the basis of the 6 or 5 substituent at the pyrimidine ring.

[1] = system: Lewis Lung Carcinoma (LLC); assay: In vivo anticancer activity toward Lewis Lung Carcinoma (LLC); conditions: LLC in C57BL mice, 27 at 7.5 mg/kg, CDDP at 1.5 mg/kg
Description: (§1) Besides, it was as cytotoxic as 19 towards cancer cells while showing a more favorable selectivity index. On these basis, compound 27 was chosen for in vivo experiments against a syngeneic murine solid tumor model, the murine Lewis Lung Carcinoma (LLC). The tumor growth inhibition induced by 27 was compared with that promoted by cisplatin (CDDP), the most common chemotherapeutic drug used in the treatment of lung cancers. Nine days after tumor inoculation, tumor-bearing mice were randomized into vehicle control and treatment groups (8 mice per group). Control mice received the vehicle (0.2%v/v EtOH and 99.8%v/v of a saline solution), whereas treated groups received daily doses of 27 (7.5 mg · kg^−1 in the vehicle solution composed of 0.2%v/v EtOH and 99.8%v/v of saline solution) or CDDP (1.5 mg · kg^−1 in saline solution). Tumor growth was estimated at day 20 (Fig. 7a). As an indication of the adverse side effects, changes in the body weights of tumor-bearing mice were monitored at day 1 and daily from day 9.
Figure 7 In vivo testing of compound 27. Lewis lung carcinoma (LLC) was implanted i.m. (2 · 10^6 cells inoculum) into the right hind leg of 8-week old imbred C57BL mice. Nine days after tumor inoculation (palpable tumor), tumor-bearing mice were randomized into vehicle control and treatment groups (8 mice per group). Compound 27 was dosed daily at 7.5 mg/kg ip and CDDP was dosed daily at 1.5 mg/kg ip. At day 20, animals were sacrificed (i.e., before tumor can cause the animal discomfort), the legs were amputated at the proximal end of the femur, and the inhibition of tumor growth was determined according to the difference in weight of the tumor-bearing leg and the healthy leg of the animals expressed as % referred to the control animals. Control was constituted by vehicle (0.2%v/v EtOH and 99.8%v/v of saline solution). CDDP was used as positive reference. Both 27 and CDDP were administered at the highest not toxic doses (7.5 and 1.5 mg/kg, respectively), as determined by MTD studies. (a) Average tumor weight (g) after 20 days of treatment with control or compounds. (b) Percentage of reduction in tumor growth after 20 days of treatment with respect to control mice. (c) Body weight changes. The body weight changes of LLC bearing C57BL mice treated with vehicle or tested compounds. Each drug was administered daily after 9 days from the tumor cell inoculum. Weights were measured at day 1 and daily from day 9. Error bars indicate the standard deviation.
All studies involving animal testing were carried out in accordance with the ethical guidelines for animal research adopted by the University of Padua, acknowledging the Italian regulation (D.L.G.S. 116/92) and European Directive 86/609/EEC as to the animal welfare and protection and the related codes of practice. […]

[2] = Body weight changes of LLC bearing mice; type: in vivo; conditions: LLC bearing C57BL mice, 27 daily 7.5 mg/kg ip
Description: as §1, with “Control mice received the vehicle (0.2%v/v EtOH and 99.8%v/v of a saline solution), whereas treated groups received daily doses of 27 (7.5 mg · kg^−1 in the vehicle solution composed of 0.2%v/v EtOH and 99.8%v/v of saline solution) or CDDP (1.5 mg · kg^−1 in saline solution). Tumor growth was estimated at day 20 (Fig. 7a).” left out
Figure 7 In vivo testing of compound 27. […] At day 20, animals were sacrificed (i.e., before tumor can cause the animal discomfort), the legs were amputated at the proximal end of the femur, and the inhibition of tumor growth was determined according to the difference in weight of the tumor-bearing leg and the healthy leg of the animals expressed as % referred to the control animals. […] Both 27 and CDDP were administered at the highest not toxic doses (7.5 and 1.5 mg/kg, respectively), as determined by MTD studies. […] Weights were measured at day 1 and daily from day 9. […]

| SMILES | Selectivity profile (kinases targeted) in primary screening (panel of 48 kinases) | Inhibition of tumor growth (%) ([1]; daily ip from day 9, day 20, versus vehicle control) | Average tumor weight (mean±S.D., g) ([1]; daily ip from day 9, day 20) | Body weight loss [2] |
| --- | --- | --- | --- | --- |
| O=C(Nc1ccccc1)Nc1ccc(Nc2cc(-c3ccccc3)ncn2)cc1 [Compound 19] | class III RTK | – | – | – |
| O=C(CN1CCOCC1)Nc1cccc(-c2cc(Nc3ccc(NC(=O)Nc4ccccc4)cc3)ncn2)c1 [Compound 27] | – | 84.7% | 0.075 ± 0.03 g | < 10% |
